{"source": "patent US5053006A", "about": "“Method for the permanent occlusion of arteries” (priority 1990, dated 1991)", "key": {"[1]": {"conditions": "in vivo; cited from earlier work"}, "corneal blood vessels": {"tested_on": "corneal blood vessels", "format": "in vivo, New Zealand albino rabbit", "excerpt": "Both corneal and limbal epithelia, along with the conjunctival epithelium 2-3 mm beyond the limbus, were removed from New Zealand albino rabbit eyes by n-heptanol debridement and surgical scraping (Huang et al., Ophthalmology, 95:228-235, 1988, the disclosure of which is hereby incorporated by reference and relied upon). The denuded corneas were healed by the remaining conjunctival epithelium within 9 to 12 days, of which 65% became extensively vascularized two to three weeks after healing. Sixteen corneas with persistent neovascularization of 20 months duration were subjected to photothrombotic treatment.\nOcclusion of corneal blood vessels was achieved by intravenous injection of the rose bengal solution at a dosage of 40 mg/kg body weight followed by irradiation of the blood vessels with an argon green laser beam (514.5 nm in wavelength) set at a power of 130 mW, beam spot size of 63 μm in diameter, and duration of 0.2 second. During the irradiation, the corneal surface was rinsed with a balanced salt solution maintained at 37° C. to ensure the efficacy of photothrombosis. The laser beam was applied to the limbus at the arborization point of each feeder vessel. In 12 corneas, the blood vessels on the upper half of the cornea were photothrombosed and those on the lower half were left untreated and used as an internal control. In the remaining four corneas, the blood vessels on the entire cornea were treated. Each blood vessel was occluded within 10 consecutive shots of irradiation. For all corneas, the treatment was completed within 30 minutes after initial injection of rose bengal solution. After laser irradiation, topical antibiotics and steroids were applied for two days. This treatment was similar to that described in Watson et al., Lasers Surg. Med., 7:127, 1987.\nExternal ocular examinations were performed to identify changes on the ocular surface before and after photothrombosis. Surface smoothness was examined by routine slitlamp biomicroscopy. External photographs were taken to document corneal clarity and regression of the vessels.\nOcclusion of the corneal blood vessels and the duration of occlusion were further studied by routine corneal fluorescein angiography using an intravenous injection of 1 ml of 10 mg/ml of sodium fluorescein. Photographs and angiograms were taken with a Zeiss surgical microscope. Baseline angiography was performed two to three days before photothrombosis to avoid possible photosensitizing effects from the fluorescein used for angiography. Follow-up angiograms were taken on the scheduled dates to document the occlusive effect and its duration. Late phase fluorescein angiograms (5 minutes after injection) were chosen for comparisons. After occlusion was confirmed by angiography, the rabbits were sacrificed on the prescheduled date and corneal buttons were obtained and subjected to epithelial differentiation studies. The total follow-up duration was 18 weeks."}, "[2]": {"test": "Absorption / excitation of the dye in tissue", "format": "physicochemical", "excerpt": "Examples of lasers that can be used to provide the light beam include the He-Ne laser, the argon ion laser and the argon-pumped dye laser. The 543.5 nm He-Ne laser, for example, can excite rose bengal with an efficiency of 58% of the maximum. (The wavelength at which excitation efficiency for rose bengal is maximal in tissue occurs at 562 nm.) Because the maximum theoretical power output is only 4 or 5 milliwatts, the 543.5 nm He-Ne laser is not used in clinical applications at this time. However, this laser is expected to be particularly useful in permanently occluding relatively low-flow arteries, smaller than about 200 μm, such as those in the choroid of the eye.\nThe argon ion laser is the most common clinical laser used at this time. Although the commonly used argon 514.5 nm line is only 36% efficient with respect to the maximum of rose bengal absorption, this laser is much more powerful (by at least a factor of 1000) and versatile than the He-Ne laser.\nThe absorption maximum of erythrosin B in endothelial tissue is at 536 nm, which is closer than that of rose bengal to the standard 514.5 nm wavelength of the argon ion laser."}, "[3]": {"tested_on": "middle cerebral artery (MCA)", "test": "He-Ne laser photochemically induced MCA thrombosis (Example 7)", "format": "in vivo, rat (male Sprague-Dawley)", "procedure": "Normally fed male Sprague-Dawley rats weighting 280-330 gm were used. Anesthesia was induced with 4% halothane and maintained with 1.5% halothane, 70% N2 O and a balance of O2 delivered through a closely fitting face mask. Polyethylene catheters were inserted retrogradely into the right external carotid artery and right femoral artery and vein. The partial pressures of O2 and CO2 and the arterial pH were measured frequently. Rectal temperature was maintained at 37° C. by means of a heating pad.\nRats were mounted on a stereotaxic frame and the right MCA was exposed by a modified subtemporal approach. A portion of the jaw was removed, and the masseter muscle was retracted downward to facilitate exposure of the MCA. The mandibular joint was kept intact so as not to disturb normal feeding. To produce MCA occlusion in these studies, a low power He-Ne laser operating in the TEM^*01 (doughnut) mode at 0.8 mW and at a wavelength of 543.5 nm (PMS Electro-Optics, Boulder, CO.) was used. The efficiency of this laser in interacting with rose bengal dye is appreciable (58%) in that its emission wavelength is near the absorption maximum of rose bengal in tissue (562 nm). The animal was moutned in a stereotaxic frame, and its right side was tilted upward by 35° in order for the laser beam to strike the proximal MCA tangentially. The ring-shaped beam was focused transversely onto the exposed MCA by two crossed cylindrical lenses of 1- and 2-inch focal length. The resulting focused spot, rectangular in shape, was ~200 μm wide (spanning the diameter of the MCA perpendicular to its axis) and 40 μm high (parallel to the MCA axis).\nMCA thrombosis was induced in two steps. First, the linear beam was focused transversely on the MCA segment just distal to the rhinal branch. The intensity of laser irradiation at the focal site was 10 W/cm^2. Rose bengal was then injected intravenously (30 mg/ml in saline, 0.67 ml/kg bw weight). An orange fluorescence was immediately observed in the irradiated MCA segment, and a white thrombus began to form within the fluorescent segment and gradually elongated rostrally. […]"}}, "data": [{"smiles": "O=C([O-])c1c(Cl)c(Cl)c(Cl)c(Cl)c1-c1c2cc(I)c(=O)c(I)c-2oc2c(I)c([O-])c(I)cc12.[Na+].[Na+]", "note": "[rose bengal]", "values": [{"measurement": "disappearance through the feces", "setting": "[1]", "value": 3, "unit": "days"}, {"measurement": "consecutive shots to occlude each blood vessel", "setting": "corneal blood vessels; 40 mg/kg i.v., 130 mW, 0.2 second", "value": "≤ 10", "unit": "shots"}, {"measurement": "dye leakage in angiograms, treated areas", "setting": "corneal blood vessels; follow-up angiograms", "value": "free of dye leakage"}, {"measurement": "regression of occluded corneal blood vessels", "setting": "corneal blood vessels; four days after treatment", "value": "gradually regressed"}, {"measurement": "epithelial breakdown", "setting": "corneal blood vessels; rabbit, in vivo", "value": "No epithelial breakdown was observed"}, {"measurement": "persistence of hemorrhagic spots", "setting": "corneal blood vessels; rabbit, in vivo", "value": "two to three"}, {"measurement": "retention of rose bengal in corneas", "setting": "corneal blood vessels; rabbit, in vivo", "value": "all 16 corneas were clear of retained rose bengal"}, {"measurement": "occlusion of treated vessels", "setting": "corneal blood vessels; two corneas, 18 weeks", "value": "all treated vessels remained occluded without recanalization, and no new vessel growth elsewhere was observed"}, {"measurement": "excitation efficiency relative to maximum of absorption", "setting": "[2]; 514.5 nm argon line", "value": 36, "unit": "%"}, {"measurement": "excitation efficiency relative to maximum", "setting": "[2]; 543.5 nm He-Ne laser", "value": 58, "unit": "%"}, {"measurement": "gain in efficiency of endothelial photosensitization, factor", "setting": "[2]; argon-pumped dye laser (562 nm) over 514.5 nm argon line", "value": "≥ 3"}, {"measurement": "wavelength of maximal excitation efficiency / absorption maximum in tissue", "setting": "[2]; in tissue", "value": 562, "unit": "nm"}, {"measurement": "time to complete MCA occlusion", "setting": "[3]; 30 mg/ml, 0.67 ml/kg i.v., 543.5 nm He-Ne, first irradiation", "value": "≤ 10", "unit": "min"}, {"measurement": "thrombus length", "setting": "[3]; end of second irradiation", "value": "about 1.2 mm"}, {"measurement": "thrombus length", "setting": "[3]; first irradiation", "value": "~ 400 μm"}]}]}
